Values of other authors in patent US20090092657A1, “Amino acid combinant omega oil aphrodisiac” (priority 2007, published 2009).

Columns and labels:
[1] = 1989 outbreak traced to L-tryptophan supplied by Showa Denko KK
[2] = for erection after injection: injected directly into the corpus cavernosum using a hypodermic needle; for duration of erection: intracavernosal injection, appropriate dose
[3] = buccal administration of 100 I.U. three times a day for 14 days

SMILES | erection after injection [2] | also measured
N[C@@H](Cc1c[nH]c2ccccc12)C(=O)O [L-tryptophan] | – | cases of eosinophilia-myalgia syndrome (EMS) in the outbreak [1]: 1500 cases; deaths in the EMS outbreak [1]: at least 37 deaths
Cc1ccc(N(CC2=NCCN2)c2cccc(O)c2)cc1 [phentolamine] | caused erection | –
CN(C)CCCN1c2ccccc2CCc2ccccc21 [imipramine] | caused erection | –
CC(=O)Oc1cc(C(C)C)c(OCCN(C)C)cc1C [thymoxamine] | caused erection | –
CCN(CC)CCOC(=O)C(Cc1cccc2ccccc12)CC1CCCO1 (mixture of isomers) [naftidrofuryl] | caused erection | –
COc1ccc(Cc2nccc3cc(OC)c(OC)cc23)cc1OC [papaverine] | caused erection | duration of erection [2]: unrelenting erection lasting for hours
CC[C@H](C)[C@@H]1NC(=O)[C@H](Cc2ccc(O)cc2)NC(=O)[C@@H](N)CSSC[C@@H](C(=O)N2CCC[C@H]2C(=O)N[C@@H](CC(C)C)C(=O)NCC(N)=O)NC(=O)[C@H](CC(N)=O)NC(=O)[C@H](CCC(N)=O)NC1=O [oxytocin] | – | improvement of impotentia erectionis, patients improved of patients treated [3]: 12 of the 16
CC(COc1ccccc1)N(CCCl)Cc1ccccc1 (centres unmarked) [phenoxybenzamine] | caused erection | duration of erection [2]: unrelenting erection lasting for hours
